Results on four compounds are retold here after paper PMC11778240, “Synthesis and preclinical evaluation of tigilanol tiglate analogs as latency-reversing agents for the eradication of HIV” (Science Advances, 2025).

One test deals with HIV. The following applies: HIV-infected, ART-treated humanized mice, cited from earlier work.
The subject of a further test is NF-κB pathway. As to the kind of experiment: NF-κB activation assay, A549 cells with SEAP reporter. Format: cell-based, Human. Particulars: 24 hours after dosing, A549 cells. From the text: As a high-throughput method of screening compounds for their ability to get into cells and activate immunological pathways related to HIV latency reversal ([46], [70]), we conducted an NF-κB reporter assay using A549 cells stably integrated with a secreted embryonic alkaline phosphatase reporter under the control of a promoter fused to five NF-κB binding sites (Fig. 7B) ([48], [70], [71]).
Human A549-Dual™ Cells supplied by InvivoGen (Cat. code a549d-nfis) and CHO-K1 cells were passaged when about 90% confluency was reached (approximately every three days). With each passage, media was aspirated from the cell layer, which was then washed with PBS. Following aspiration of the PBS, cells were detached from the culture flask with 0.25% GibcoTM Trypsin-EDTA and transferred to a 50 mL conical, which was volumed up with complete pre-warmed DMEM (4.5 g/L glucose, 10% FBS, and 1% Pen-Strep-Glutamine (100 X, 50 mg/mL)) or Ham's F-12K (Kaighn's) Medium supplemented with 10% FBS and 1% Pen-Strep (100 X, 50 mg/mL).
This conical was spun down at 1800 rpm for 3 minutes, the supernatant was removed, and cells were resuspended in their respective fresh, pre-warmed media. To count cells, 10 μL of resuspended cells were added to a sterile microcentrifuge tube and mixed with 10 μL of trypan blue after which 10 μL of the mixture was pipetted into a Countess chamber slide. A Countess™ 3 Automated Cell Counter was subsequently utilized to determine cell viability and concentration.
1 x 10^6 cells were seeded with each passage into a T75 culture flask, and cells were incubated at […]
Human A549 lung carcinoma cells (InvivoGen Cat. code a549d-nfis), stably integrated with a secreted embryonic alkaline phosphatase (SEAP) reporter, allow for the activity of the NF-κB pathway to be monitored. The SEAP reporter is under control of the interferon β (IFN-β) minimal promoter, which is fused to five NF-κB binding sites.
5 × 10^4 A549 cells were plated on Corning® 96 Well TC-Treated Microplates (CLS3595) in 180 μl of pre-warmed DMEM (4.5 g/L glucose, 10% heat-inactivated FBS (30 min at 56 ℃), and 1% Pen-Strep-Glutamine (100 X, 50 mg/mL)). Note that if cells were grown in media containing FBS that is not heat-inactivated, media will contain alkaline phosphatase. In this case, all supernatant must thoroughly be aspirated from the cell pellet obtained after centrifugation before resuspending cells in media containing heat inactivated FBS for plating. Following incubation at 37 °C in 5% CO2 for approximately 24 hours to allow for cell adherence onto the 96 well plate, 1.8 μL of each compound dissolved in DMSO was added in quadruplicate to their respective wells to achieve a final compound concentration of 1500 nM, 500 nM, or 50 nM. 1.8 μL of DMSO was added to wells as negative controls while wells treated with EBC-46 served as positive controls. 24 hours following compound addition, 180 μL of QUANTI-BlueTM Solution (InvivoGen Cat. code rep-qbs)- medium containing QB buffer and QB Reagent for detection and quantification of alkaline phosphatase- were added into wells on a new clear flat-bottom 96-well plate. 20 μL of supernatant of either SEAP-expressing cells incubated with compound or SEAP-expressing cells incubated with DMSO only were added to the wells in the new 96-well plate containing QUANTI-BlueTM Solution. Supernatant and QUANTI-BlueTM Solution were incubated at 37 °C in 5% CO2 for approximately an hour and a half. Following incubation, optical density (OD) at 630 nm was measured for each well using a BioTek Synergy H1 microplate reader under normal read speed and with a delay of 100 msec.

Another test has as its system J-Lat clone 10.6 cells. As to the kind of experiment: J-Lat HIV latency reversal assay (GFP expression). It is filed as cell-based, Human. The following applies: J-Lat 10.6; for HIV latency reversal time course in words: over 48 hours. From the text:
Having shown that our lead compounds bind cell-free PKC isoforms, enter cells, translocate PKC-GFP fusion proteins, and activate NF-κB transcription factors, we next set out to determine whether our analogs were capable of reversing HIV from latency. We performed in vitro assays using T lymphocyte J-Lat clone 10.6, which contains a latent near full-length replication-incompetent integrated HIV DNA genome ([72]). J-Lat 10.6 lacks two viral genes, env and nef, which encode for the envelope protein and an accessory protein, respectively, and thus cannot initiate a spreading HIV infection. The integrated HIV provirus also encodes a GFP reporter gene, allowing latency reversal to be measured by quantification of GFP expression (fig. S1). […] In this latency reversal assay, we quantified GFP expression 48 hours after compound addition and observed bryostatin 1 to be maximally effective at concentrations of 40 nM or higher with latency reversal in 12% of cells (Fig. 8). Given the efficacy of bryostatin 1 as an LRA ([73], [74]), EBC-46 and many of its analogs tested in this J-Lat assay induced latency reversal in >90% of cells. […] SUW427, an esterase-releasable prodrug of EBC-46, also performed similarly to EBC-46 with a maximum efficacy of latency reversal in >90% of cells at a dose of 250 nM. […] The gradual release of EBC-46 from its prodrug form provides an alternative mode of administration that avoids the bolus effect associated with rapid drug administration ([17]). […] This is consistent with its lack of activity in the NF-κB activation assay and its design as a negative control as it is structurally similar to EBC-46 but unable to bind to the C1 domain of PKC at the concentrations used in this assay as it lacks a complete pharmacophore.
HIV latency reversal in-vitro assay
Human T Lymphocyte J-Lat Full Length Cell Line 10.6 (cat #9849) was obtained through the NIH HIV Reagent Program, Division of AIDS, NIAID, NIH and was contributed to the NIH HIV Reagent Program by Dr. Eric Verdin (70). J-Lat 10.6 cells were plated at 5 × 10^5 cells in 180 μL of RF10 media consisting of RPMI media supplemented with 1% Penicillin/Streptomycin and 10% Fetal Bovine Serum (FBS) in 96 -well U -bottom plates. J -Lat 10.6 cells were then stimulated for 48 hr by adding 20 μL of newly designed and synthesized tigilanol tiglate analogs, PKC modulators (bryostatin 1) as our positive control or med ia only (mock) as our negative control. Our negative control was RF10 media as the tigilanol tiglate analogs were freshly diluted with RF10 prior to plating. The final volume was 200 μL per well. Experiments were performed in three independent biological replicates, each completed in technical duplicates (n = 6). After 48 hr stimulation, 96 - well U -bottom plates were centrifuged at 296 RCF for 7 minutes to pellet cells, which were resusp ended in 200 μL of freshly prepared 2% paraformaldehyde (PFA) in PBS. GF P expression was measured 24 -hours post -fixation using the FITC channel on a LSR Fortessa (BD Biosciences) flow cytometer. Data analysis was conducted with FlowJo software version 10.8.1.

A further test relates to latent HIV. The following applies: cited from earlier work.

On to `C=C1C[C@H]2C[C@]3(O)O[C@H](C[C@@H](O)CC(=O)O[C@@H](CO)C[C@@H]4C/C(=C\C(=O)OC)[C@H](OC(=O)CCCCCCC)[C@@](O)(O4)C(C)(C)/C=C/[C@@H](C1)O2)C[C@H](OC(C)=O)C3(C)C` [SUW133], for which, in the test on HIV (with natural killer cells as kill arm), the “animals not rebounding in vivo after ART discontinuation” value is 40%. In the test on HIV (administered alone), the “effect on HIV rebound in words” value was “capable of delaying rebound when administered alone”.

`CC=C(C)C(=O)OC1C(C)C2(O)C(C3OC3(COC(=O)OCc3ccc(OC(=O)OC)cc3)C(O)C3(O)C(=O)C(C)=CC32)C2C(C)(C)C12OC(=O)C(C)CC` (centres unmarked) [SUW427]: the “NF-κB activation (optical density, 630 nm)” value in the test on NF-κB pathway (50 nM) is reported as 0.33 optical density, 630 nm; in the test with NF-κB pathway (500 nM), 0.64 optical density, 630 nm. Further, the “HIV latency reversal time course in words” value with J-Lat clone 10.6 cells (100 nM) was “clear delayed HIV latency reversal”; in the test with J-Lat clone 10.6 cells (250 nM) it was “almost converged with its parent compound at all time points and reached maximal latency reversal”. The “maximal latency reversal, % of cells” value with J-Lat clone 10.6 cells (250 nM, 48 hours) was > 90 % of cells.

Regarding `CCC/C=C/C=C/C(=O)O[C@H]1/C(=C/C(=O)OC)C[C@H]2C[C@H]([C@@H](C)O)OC(=O)C[C@H](O)C[C@@H]3C[C@H](OC(C)=O)C(C)(C)[C@](O)(C[C@@H]4C/C(=C/C(=O)OC)C[C@H](/C=C/C(C)(C)[C@]1(O)O2)O4)O3` [bryostatin 1, reference compound], the “NF-κB activation (optical density, 630 nm)” value is on record as 0.47 optical density, 630 nm in the test with NF-κB pathway (50 nM) and 0.41 optical density, 630 nm in the test with NF-κB pathway (500 nM). Besides, the “latency reversal, % of cells” value in the test on J-Lat clone 10.6 cells (maximally effective at 40 nM or higher, 48 hours) is 12 % of cells.

For the compound prostratin-C13-naphthyl acetate, the “potency as an LRA relative to prostratin” value with latent HIV is listed as over 130 fold.
